The record followed here is ChEMBL document CHEMBL1671839 (ACS Med Chem Lett, 2011).

Structures are written as SMILES.

Data set [1] in a line: in vivo. The following applies: Wistar, rat, po, 10 mg/kg.
The nature of data set [2]: in vivo. The following applies: Wistar, rat, iv, 1 mg/kg.
Data set [3] is described as follows: in vivo. The settings on record: Wistar, rat, iv, 1 mg/kg. The source holds these as a separate data set.
For a further data set, the species on record is Rattus norvegicus. The settings on record: in vivo, iv, 1 mg/kg.
The nature of data set [4]: in vivo. The following applies: Wistar, rat, po, 10 mg/kg. This is another data set of the same source.
Data set [5] is described as follows: AUC in cynomolgus monkey at 0.5 mg/kg, iv. The format is ADME, organism-based, Macaca fascicularis. Also noted: dose 0.5 mg/kg, route intravenous. The following applies: plasma.
Data set [6] in a line: Volume of distribution at steady state in cynomolgus monkey at 0.5 mg/kg, iv. The format is ADME, organism-based, Macaca fascicularis. Also noted: dose 0.5 mg/kg, route intravenous. The settings on record: in vivo, read-out: Vdss.
Data set [7] can be described thus: Oral bioavailability in cynomolgus monkey at 1 mg/kg. The format is ADME, organism-based, Macaca fascicularis. The following applies: in vivo.
The nature of data set [8]: AUC in Beagle dog at 1 mg/kg, iv. The format is ADME, organism-based, Canis lupus familiaris. Also noted: dose 1 mg/kg, route intravenous. The settings on record: plasma.
Data set [9] can be described thus: Terminal phase volume of distribution […] in cynomolgus monkey at 0.5 mg/kg, iv. The format is ADME, organism-based, Macaca fascicularis. Also noted: dose 0.5 mg/kg, route intravenous. The following applies: in vivo, read-out: Vbeta.
Data set [10] can be described thus: Tmax in cynomolgus monkey at 1 mg/kg, po. The following applies: in vivo. The format is ADME, organism-based, Macaca fascicularis. Also noted: dose 1 mg/kg, route oral.
Data set [11] can be described thus: in vivo. The following applies: Wistar, rat, plasma, iv, 1 mg/kg.
Data set [12] in a line: in vivo. The settings on record: Wistar, rat, plasma, iv, 1 mg/kg. This is another data set of the same source.
Data set [13] in a line: Plasma clearance in cynomolgus monkey at 0.5 mg/kg, iv. Also noted: dose 0.5 mg/kg, route intravenous. The format is ADME, organism-based, Macaca fascicularis.
The nature of data set [14]: Tmax in Beagle dog at 1 mg/kg, po. The format is ADME, organism-based, Canis lupus familiaris. Also noted: dose 1 mg/kg, route oral. The following applies: in vivo.
Data set [15] is described as follows: Cmax in Beagle dog at 1 mg/kg, po. The following applies: in vivo. Also noted: dose 1 mg/kg, route oral. The format is ADME, organism-based, Canis lupus familiaris.
Data set [16] in a line: in vitro. The following applies: human, liver microsomes.
The nature of data set [17]: Half life in cynomolgus monkey at 0.5 mg/kg, iv. The format is ADME, organism-based, Macaca fascicularis. Also noted: dose 0.5 mg/kg, route intravenous. The settings on record: in vivo.
Data set [18] can be described thus: in vivo. The settings on record: Wistar, rat, po, 10 mg/kg. The source holds these as a separate data set.
A short description of data set [19]: Plasma clearance in Beagle dog at 1 mg/kg, iv. The format is ADME, organism-based, Canis lupus familiaris. Also noted: dose 1 mg/kg, route intravenous.
Data set [20] is described as follows: Terminal phase volume of distribution […] in Beagle dog at 1 mg/kg, iv. The format is ADME, organism-based, Canis lupus familiaris. Also noted: dose 1 mg/kg, route intravenous. The following applies: in vivo, read-out: Vbeta.
The nature of data set [21]: Tmax in BALB/c mouse at 10 mg/kg, po. The format is ADME, organism-based. The following applies: in vivo. Also noted: dose 10 mg/kg, route oral.
Data set [22] is described as follows: in vitro. The settings on record: rat, liver microsomes. In general terms: Liver microsomes are a subcellular fraction often used to study metabolism.
Data set [23] is described as follows: Oral bioavailability in Beagle dog at 1 mg/kg. The format is ADME, organism-based, Canis lupus familiaris. The following applies: in vivo.
The nature of data set [24]: Half life in Beagle dog at 1 mg/kg, iv. The format is ADME, organism-based, Canis lupus familiaris. Also noted: dose 1 mg/kg, route intravenous. The following applies: in vivo.
The nature of data set [25]: Cmax in cynomolgus monkey at 1 mg/kg, po. The format is ADME, organism-based, Macaca fascicularis. Also noted: dose 1 mg/kg, route oral. The following applies: in vivo.
The nature of data set [26]: Cmax in BALB/c mouse at 10 mg/kg, po. The settings on record: in vivo. The format is ADME, organism-based. Also noted: dose 10 mg/kg, route oral.
Data set [27] is described as follows: Volume of distribution at steady state in Beagle dog at 1 mg/kg, iv. The format is ADME, organism-based, Canis lupus familiaris. Also noted: dose 1 mg/kg, route intravenous. The following applies: in vivo, read-out: Vdss.

As usually defined, the bioavailability is the share of a dose that reaches the circulation, judged against a reference dose that is usually intravenous. For orientation: half-life means how long it takes for the measured level to halve. By AUC is commonly meant concentration integrated over time. The Tmax is the time at which the peak concentration occurs. For `CC(=O)Nc1cnc(-c2ccncc2)c(-c2ccco2)n1`, in “in vivo [1]”, the bioavailability amounted to 93%. In the data set “in vivo [2]”, this molecule gave a half-life of 0.4 h. Besides, the Vd in “in vivo [3]” is 0.8 L/kg. In the data set listed under Rattus norvegicus, this molecule displayed an AUC of 751000 ng·h/mL. The Tmax in “in vivo [4]” amounted to 1.1 h.
Usually clearance stands for the rate of elimination divided by the concentration. As usually defined, the Cmax is the peak of the concentration-time curve. As for `O=C(Nc1cnc(-c2ccncc2F)c(-c2cccnc2)n1)C1CC1` [LAS101057], the AUC in data set [5] was 3400 ng·h/mL; in data set [8] it was 13600 ng·h/mL; in the data set “in vivo [11]”, 920 ng·h/mL. Besides, the Vd in [6] amounted to 0.4 L/kg; in data set [9], 0.8 L/kg; in [20], 0.9 L/kg; in “in vivo [3]”, 1.2 L/kg; in [27], 0.8 L/kg. For the same molecule, the values for the bioavailability (in the data set “in vivo [1]”; in [7]; in data set [23]) were 100%, 100% and 98%, respectively. For the same molecule, the Tmax came to 3 h in [10], 2 h in data set [14], 0.25 h in data set [21] and 0.25 h in “in vivo [4]”. Moreover, the clearance in “in vivo [12]” is 18.3 mL/min/kg; in data set [13] it was 3.4 mL/min/kg; in data set [19], 1.7 mL/min/kg. For the same molecule, the Cmax in data set [15] turned out to be 820 ng/mL; in “in vivo [18]”, 7110 ng/mL; in data set [25] it was 5900 ng/mL; in [26] it was 17400 ng/mL. In addition, the metabolised at 0.5 h, 5 µM in the data set “in vitro [16]” stood at 5%; in the data set “in vitro [22]” it was 13%. Besides, the half-life was 3.8 h in [17], 0.8 h in “in vivo [2]” and 8.6 h in data set [24].
